# Assay results as given in US8796456B2, “Naphthalene diimide compounds” (University College London, priority 2007, dated 2014).
# Assays:
# telomeric G-quadruplex = format: binding, human; settings: for FRET-Q ΔTm(0.5 μM): telomeric G-quadruplex sequence, 0.5 μM compound, maximum error ± 1° C.
# Procedure: (§1) 50 μL of annealed DNA and 50 μL of compound per well were put into 96-well plates and processed in a DNA Engine Opticon (MJ Research). […] The raw data were imported into Origin 7.0 (OriginLab Corp.) and the graphs smoothed using a 10-point running average and subsequently normalised. For the determination of the melting temperature, the first derivative of the smoothed melting curve was calculated.
# (§2) The initial assessment of the DNA stabilisation ability of the compounds was done using FRET. Four different DNA sequences were used—a model for the human telomeric G-quadruplex, a self-complementary duplex DNA hairpin and two sequences that are present in the promoter region of the CKIT gene. A FRET competition experiment was also run in which affinity for the telomeric G-quadruplex sequence was evaluated in presence of increasing concentrations of duplex DNA. These experiments allowed us to assess the selectivity of the ligands between quadruplex and duplex DNA.
# ckit2 G-quadruplex = test: FRET melting assay, ckit2 G-quadruplex; format: binding; settings: ckit2 G-quadruplex sequence, 0.5 μM compound, maximum error ± 1° C.
# Procedure: as §1, §2
# HT-29 cells (colon) = test: SRB toxicity assay, HT-29; format: cell-based; settings: Homo sapiens, 96 h exposure, HT-29D
# Procedure: (§3) Human cancer cell lines, breast (MCF7), lung (A549), colon (HT-29), gastric (HGC-27) and normal human lung fibroblast lines (WI-38) were purchased from American Type Cell Culture (ATCC). The GIST882 line was a gift from Dr Jonathan Fletcher. All cell lines except HGC27 and WI38 were maintained in Dulbecco's Modified Eagles Media containing 10% foetal bovine serum (Invitrogen, UK), […] hydrocortisone (Acros Chemicals, Loughborough, UK), 2 mM L-glutamine (Invitrogen, Netherlands), and non-essential amino-acids (Invitrogen, Netherlands), and incubated at 37° C., 5% CO2. The WI38 and HGC27 lines were maintained in minimum essential medium, prepared as above. All cell lines were routinely passaged at a ratio of 1:6.
# (§4) Short-term growth inhibition was measured using the SRB assay as described previously. Briefly, cells were seeded (4000 cells/wells) into the wells of 96 well-plates in appropriate medium and incubated overnight to allow the cells to attach. Subsequently cells were exposed to freshly-made solutions of drugs and incubated for a further 96 h. Following this the cells were fixed with ice cold trichlo-acetic acid (TCA) (10%, w/v) for 30 min and stained with 0.4% SRB dissolved in 1% acetic acid for 15 min. All incubations were carried out at room temperature.
# ckit1 G-quadruplex = test: FRET melting assay, ckit1 G-quadruplex; format: binding; settings: ckit1 G-quadruplex sequence, 0.5 μM compound, maximum error ± 1° C.
# Procedure: as §1, §2
# HGC-27 cells (gastric) = test: SRB toxicity assay, HGC-27; format: cell-based; settings: Homo sapiens, HGC-27, 96 h
# Procedure: as §3, §4
# telomerase = test: Modified TRAP assay (telomerase inhibition); format: biochemical
# Procedure: The TRAP assay was carried out in three steps with an initial primer elongation step by telomerase, a subsequent removal of the primer bound ligand and a final PCR amplification of the telomerase products. […] The PCR master mix was added to tubes containing freshly prepared compounds at various concentrations and to the negative control containing no drug. The initial elongation step was carried out for 10 min at 30° C., followed by a 94° C. for 5 min and a final maintenance of the mixture at 20° C. To purify the elongated product and to remove the bound ligands the QIAquick nucleotide purification kit (Qiagen) was used according to manufacturer's instructions. […] This was substituted with PCR-grade water in our experiments. The purified extended samples were then subject to PCR amplification. […] Fluorescence from drug samples were normalised against positive control containing protein only. All samples were corrected for background by subtracting the fluorescence reading of negative controls.
# GIST882 cells = test: SRB toxicity assay, GIST882; format: cell-based; settings: Homo sapiens, 96 h exposure
# Procedure: as §3, §4
# MCF7 cells = test: Senescence β-galactosidase staining in MCF7 cells; format: cell-based, human; settings: at 70 nM
# Procedure: Senescence detection and quantification experiments were carried out using a commercially available kit (Senescence β-galactosidase staining kit, Cell Signalling Technology, MA, USA). 1×10^5 cells were seeded in a 35 mm well of a 6-well plate (Nunc, Denmark) in 2 ml of medium and compound to test. The cells were incubated for 24 hours. The medium was then removed and the cells were washed with PBS (1×2 ml). The cells were fixed by treating them with 1 ml of fixative solution (2% formaldehyde and 2% glutaraldehyde in PBS) for 15 minutes at RT. The fixative solution was then removed and the wells washed with PBS (2×2 ml). Freshly prepared staining solution (a mixture of 930 μL of 40 mM citric acid/sodium phosphate (pH 6.0), 0.15 M NaCl and 2 mM MgCl2, 10 μL of 500 mM potassium ferrocyanide, 10 μL of 500 mM potassium ferricyanide and 50 μL of 20 mg/ml 5-bromo-4-chloro-3-indolyl-μD-galactopyranoside in DMF) (1 ml) was added and the cells were incubated overnight. The senescent cells, detected by their blue pigmentation, were quantified under a light microscope.
# Senescence phenotype was investigated in MCF7 cells treated for 1 week with sub-cytotoxic concentrations of a selection of compounds.
# duplex DNA = test: FRET melting assay, duplex DNA; format: binding; settings: duplex sequence, 0.5 μM compound, maximum error ± 1° C.
# Procedure: as §1, with “calculated. The difference between the melting temperature at 0.5 μM of the compound and the melting temperature for the blank (ΔTm(0.5 μM)) was used for comparison.” for “calculated.”
Compound,"concentration required to increase the melting temperature by 35° C. (telomeric G-quadruplex; G-quadruplex DNA, FRET) [µM]",FRET-ckit2 ΔTm(0.5 μM) (ckit2 G-quadruplex) [°C],IC50 (HT-29 cells (colon)) [µM],FRET-ckit1 ΔTm(0.5 μM) (ckit1 G-quadruplex) [°C],IC50 (HGC-27 cells (gastric)) [µM],EC50 (telomerase) [µM],FRET-Q ΔTm(0.5 μM) (telomeric G-quadruplex) [°C],IC50 (GIST882 cells) [µM],Senescence (% of cells) after 1 week (MCF7) (MCF7 cells),FRET-d ΔTm(0.5 μM) (duplex DNA) [°C]
CN(C)c1ccc(Nc2c3ccc(NC(=O)CCN4CCCC4)cc3nc3cc(NC(=O)CCN4CCCC4)ccc23)cc1 [BRACO19],2.5,,,,,,,,,
CN(C)CCCNc1cc2c3c(c(NCCCN(C)C)cc4c3c1C(=O)N(CCCN(C)C)C4=O)C(=O)N(CCCN(C)C)C2=O [Compound 12],,36.5,0.063,29.75,0.51,25 ± 2.5,33.2,1.3,35.0 ± 3 (at 70 nM) % of cells,4.5
CN(C)CCCNc1cc2c3c(ccc4c3c1C(=O)N(CCCN(C)C)C4=O)C(=O)N(CCCN(C)C)C2=O [Compound 13],,29,,23.5,,17 ± 1.1,26.5,,,12.5
"CN(C)CCN1C(=O)c2ccc3c4c(ccc(c24)C1=O)C(=O)N(CCN(C)C)C3=O [Compound 33, N,N′-bis(3-(dimethylamino)ethylamino)-1,4,5,8-naphthalenetetracarboxylic acid diimide, reference compound]",,7.25,,1.25,,,3.2,,,1
"CN(C)CCCN1C(=O)c2ccc3c4c(ccc(c24)C1=O)C(=O)N(CCCN(C)C)C3=O [Compound 32, reference compound]",,7.75,,2.5,,,5.2,,,2.7
